Source: US20040175401A1, “Enhanced parmacokinetic profile of hydrophobic substances” (priority 2001, published 2004)
Where two headings read alike, the source gives them in different places.

Key:
[1] = n-octanol/water partition coefficient LogPoct calculated from solubility data; conditions: calculated as logPoct = (0.99 - logSw)/1.34
Text: where logSw is the molar solubility and logPoct is the water-oil partition coefficient. Using this equation, values for logPoct can be calculated from solubility data.

[2] = molar aqueous solubility, log value; cited from earlier work
[3] = for AUC(0-∞) / Cmax / T1/2 / Tmax: mean, n = 6
Method: Six Yucatan mini-pigs weighing 20-25 kg were used. […] A total of 6 animals were utilized in a full crossover design where each animal received a 1.0 mg dose by all administration routes in an injection volume of 0.1 mL.
The intravenous dose was administered an ear vein catheter. Subcutaneous delivery was through a standard 0.5 inch, 30 gauge needle. Delivery to the dermis was through a three point microneedle array having three 34 gauge needles with 7 mm spacing and 1 mm depth to right flank of the animal between the rib cage and the rear leg. Subcutaneous and intravenous administration was by manual injection seconds. Administration to the dermis was at a rate of 90 μL/min by a syringe pump.
The study design was a full crossover with each animal receiving intravenous, subcutaneous and dermal administration. Each animal received three treatments over a two-week period with a minimal washout period of 2 days between subsequent doses. Dosing was according to the schedule shown below in Table 2.
Blood samples were obtained from the vena cava access port immediately before dosing and at 5, 10, 15, 20, 30, 45, 60 minutes and 2, 3, 4, 6, 8, 10, 14 and 24 hours after administration. Timing was started at the cessation of injection for a given method. The venous samples were collected into EDTA containing Vacutainer tubes, centrifuged at approximately 1000 g for 10 minutes at 4° C. After centrifugation, the plasma layer was transferred to plastic storage vials and stored frozen at −70° C. until assayed.
Assay of the pig plasma samples was performed by HPLC analysis. Results are shown below in Tables 3
Pharmacokinetic parameters were estimated using Watson Drug Metabolism Laboratory Information Management System, version 6.2.0.02 (Innaphase Corp., Philadelphia, Pa.). Parameters determined were the maximal plasma concentration, Cmax, time to maximal plasma concentration Tmax, area under the curve estimated to t=infinity, Tmax and the half-life for decrease in plasma concentration, T1/2.

## CCC1(CC)C(=O)NC(=S)NC1=O [5-diethyl-2-thiobarbituric acid]
[1]
  LogPoct: 2.36

## O=C1Nc2ccc(Cl)cc2[C@@](C#CC2CC2)(C(F)(F)F)O1 [Efavirenz]
[1]
  LogPoct: 4.15
[2]
  LogSw: −4.57 moles/L

## CCCCCCCC(=O)OCN1C(=O)NC(c2ccccc2)(c2ccccc2)C1=O [3-octanoloxymethyl-5,5-diphenylhydantoin]
[1]
  LogPoct: 5.60
[2]
  LogSw: −6.52 moles/L

## CCC1(C)C(=O)NC(=O)NC1=O [5-Me-5-ethylbarbituric acid]
[1]
  LogPoct: 1.66
[2]
  LogSw: −1.23 moles/L

## dimethylthiolethione
[1]
  LogPoct: 3.29
[2]
  LogSw: −3.42 moles/L

## CC(C)(C)NC(=O)[C@@H]1C[C@@H]2CCCC[C@@H]2CN1C[C@@H](O)[C@H](Cc1ccccc1)NC(=O)[C@H](CC(N)=O)NC(=O)c1ccc2ccccc2n1 [Saquinavir]
[1]
  LogPoct: 3.97
[2]
  LogSw: −4.33 moles/L

## CC1(c2ccccc2)C(=O)NC(=O)NC1=O [5-Me-5-phenylbarbituric acid]
[1]
  LogPoct: 2.51
[2]
  LogSw: −2.38 moles/L

## CC(C)C1(C(C)C)C(=O)NC(=O)NC1=O [5,5-di-iPr-barbituric acid]
[1]
  LogPoct: 2.81

## CCC1(CC=C(C)C)C(=O)NC(=O)NC1=O [5-Et-5-(3-methylbut-2-enyl)-barbituric acid]
[1]
  LogPoct: 2.42

## O=C1NC(=O)C(c2ccccc2)(c2ccccc2)C(=O)N1 [5,5-diphenylbarbituric acid]
[1]
  LogPoct: 3.87

## O=c1[nH]cnc2c1ncn2[C@H]1CC[C@@H](CO)O1 [Didanosine]
[2]
  LogSw: −0.90 moles/L

## CC(C)=CCC1(C(C)(C)C)C(=O)NC(=O)NC1=O [5-tBu-5-(3-methylbut-2-enyl)-barbituric acid]
[1]
  LogPoct: 3.39

## O=C1NC(=O)C(c2ccccc2)(c2ccccc2)N1 [5,5-diphenyhlhydantoin]
[1]
  LogPoct: 3.80
[2]
  LogSw: −4.10 moles/L

## C=CCC1(CC)C(=O)NC(=O)NC1=O [5-Et-5-allyl-barbituric acid]
[1]
  LogPoct: 1.64
[2]
  LogSw: −1.61 moles/L

## C=C(C)[C@H]1CC=C(C)CC1 [limonene]
[2]
  LogSw: −3.41 moles/L

## CCCCC(=O)OCN1C(=O)NC(c2ccccc2)(c2ccccc2)C1=O [3-pentanoyloxymethyl-5,5-diphenylhydantoin]
[2]
  LogSw: −4.68 moles/L

## CCCC(C)C1(CC)C(=O)NC(=S)NC1=O (centres unmarked) [5-Et-5-(1-methylbutyl)-2-thiobarbituric acid]
[1]
  LogPoct: 3.49
[2]
  LogSw: −3.68 moles/L

## O=C1NC(=O)C2(CCC2)C(=O)N1 [5,5-(CH2)3-barbituricacid]
[1]
  LogPoct: 1.98

## CC(C)Nc1cccnc1N1CCN(C(=O)c2cc3cc(NS(C)(=O)=O)ccc3[nH]2)CC1 [delavirdine]
[1]
  LogPoct: 4.29
[2]
  LogSw: −4.76 moles/L

## C=CCC1(C(C)C)C(=O)NC(=O)NC1=O [5-iPr-5-allyl-barbituric acid]
[2]
  LogSw: −1.71 moles/L

## O=C1NC(=O)C2(CCCCC2)C(=O)N1 [5,5-(CH2)5-barbituric acid]
[1]
  LogPoct: 3.02

## C=CC(=C)CCC=C(C)C [Myrcene]
[1]
  LogPoct: 3.41
[2]
  LogSw: −3.58 moles/L

## CC(C)CN(C[C@@H](O)[C@H](Cc1ccccc1)NC(=O)O[C@H]1CCOC1)S(=O)(=O)c1ccc(N)cc1 [Amprenavir]
[1]
  LogPoct: 3.72
[2]
  LogSw: −4.00 moles/L

## COc1ccc(-c2cc(=S)ss2)cc1 [Anethole trithione]
[1]
  LogPoct: 5.07

## CC(=O)Nc1nc2c(ncn2COCCOC(C)=O)c(=O)[nH]1 [N2,O-diacetylacyclovir]
[1]
  LogPoct: 2.75
[2]
  LogSw: −2.70 moles/L

## CC(=O)/C=C/C1C(C)=CCCC1(C)C (centres unmarked) [a-ionone]
[2]
  LogSw: −3.06 moles/L

## C=C(C)C1CC=C(C)[C@@H](O)C1 (some centres unmarked) [carveol]
[1]
  LogPoct: 2.14
[2]
  LogSw: −1.88 moles/L

## CC(=O)OCCOCn1cnc2c(=O)[nH]c(N)nc21 [O-acetylacyclovir]
[1]
  LogPoct: 1.38
[2]
  LogSw: −0.86 moles/L

## O=C1NC(=O)C2(CC2)C(=O)N1 [5,5-(CH2)2-barbituric acid]
[1]
  LogPoct: 2.15

## O=C1NC(=O)C2(CCCCCCC2)C(=O)N1 [5,5-(CH2)7-barbituric acid]
[1]
  LogPoct: 2.96

## CC(=O)Nc1nc2c(ncn2COCCO)c(=O)[nH]1 [N2-acetylacyclovir]
[1]
  LogPoct: 2.17

## CN[C@@H]1Cc2cccc3[nH]c(=S)n(c23)C1 [(R)-5,6-dihydro-5-(methylamino)-4H-imidazo[4,5-ij]-quinoline-2(1H)-thione]
[3]; ID (dermis), 1.0 mg dose, 5 min
  Plasma Concentration, Mean: 24.8 ng/mL
[3]; ID (dermis), 1.0 mg dose, 10 min
  Plasma Concentration, Mean: 22.5 ng/mL
[3]; ID (dermis), 1.0 mg dose, 15 min
  Plasma Concentration, Mean: 16.4 ng/mL
[3]; ID (dermis), 1.0 mg dose, 20 min
  Plasma Concentration, Mean: 18.0 ng/mL
[3]; ID (dermis), 1.0 mg dose, 30 min
  Plasma Concentration, Mean: 14.0 ng/mL
[3]; ID (dermis), 1.0 mg dose, 45 min
  Plasma Concentration, Mean: 9.9 ng/mL
[3]; ID (dermis), 1.0 mg dose, 1 hr
  Plasma Concentration, Mean: 9.0 ng/mL
[3]; ID (dermis), 1.0 mg dose, 2 hr
  Plasma Concentration, Mean: 5.7 ng/mL
[3]; ID (dermis), 1.0 mg dose, 3 hr
  Plasma Concentration, Mean: 4.2 ng/mL
[3]; ID (dermis), 1.0 mg dose, 4 hr
  Plasma Concentration, Mean: 3.6 ng/mL
[3]; ID (dermis), 1.0 mg dose, 6 hr
  Plasma Concentration, Mean: 0.4 ng/mL
[3]; ID (dermis), 1.0 mg dose, 8 hr
  Plasma Concentration, Mean: 0 ng/mL
[3]; ID (dermis), 1.0 mg dose, 10 hr
  Plasma Concentration, Mean: 0 ng/mL
[3]; ID (dermis), 1.0 mg dose, 14 hr
  Plasma Concentration, Mean: 0 ng/mL
[3]; ID (dermis), 1.0 mg dose, 24 hr
  Plasma Concentration, Mean: 0 ng/mL
[3]; ID (dermis), 1.0 mg dose
  AUC(0-∞): 33.6 ng·h/mL
  Cmax: 26.7 ng/mL
  T1/2: 96.6 min
  Tmax: 8.34 min
[3]; ID versus IV, both different from SC
  Heterogeneity of Regression analysis of plasma values, dermis versus intravenous administration: not different from each other
[3]; ID versus SC, 1.0 mg dose
  Cmax values following administration to the dermis compared with subcutaneous administration: consistently greater
  Plasma levels of drug after administration into the dermis compared with subcutaneous administration: higher plasma levels
  Tmax values following administration to the dermis compared with subcutaneous administration: consistently lesser
[3]; IV, 1.0 mg dose, 5 min
  Plasma Concentration, Mean: 29.8 ng/mL
[3]; IV, 1.0 mg dose, 10 min
  Plasma Concentration, Mean: 20.5 ng/mL
[3]; IV, 1.0 mg dose, 15 min
  Plasma Concentration, Mean: 18.5 ng/mL
[3]; IV, 1.0 mg dose, 20 min
  Plasma Concentration, Mean: 15.3 ng/mL
[3]; IV, 1.0 mg dose, 30 min
  Plasma Concentration, Mean: 13.1 ng/mL
[3]; IV, 1.0 mg dose, 45 min
  Plasma Concentration, Mean: 10.7 ng/mL
[3]; IV, 1.0 mg dose, 1 hr
  Plasma Concentration, Mean: 9.1 ng/mL
[3]; IV, 1.0 mg dose, 2 hr
  Plasma Concentration, Mean: 6.7 ng/mL
[3]; IV, 1.0 mg dose, 3 hr
  Plasma Concentration, Mean: 2.8 ng/mL
[3]; IV, 1.0 mg dose, 4 hr
  Plasma Concentration, Mean: 1.6 ng/mL
[3]; IV, 1.0 mg dose, 6 hr
  Plasma Concentration, Mean: 2.6 ng/mL
[3]; IV, 1.0 mg dose, 8 hr
  Plasma Concentration, Mean: 0 ng/mL
[3]; IV, 1.0 mg dose, 10 hr
  Plasma Concentration, Mean: 0 ng/mL
[3]; IV, 1.0 mg dose, 14 hr
  Plasma Concentration, Mean: 0 ng/mL
[3]; IV, 1.0 mg dose, 24 hr
  Plasma Concentration, Mean: 0 ng/mL
[3]; IV, 1.0 mg dose
  AUC(0-∞): 32.4 ng·h/mL
  Cmax: 29.8 ng/mL
  T1/2: 87 min
  Tmax: 4.98 min
[3]; SC, 1.0 mg dose, 5 min
  Plasma Concentration, Mean: 10.0 ng/mL
[3]; SC, 1.0 mg dose, 10 min
  Plasma Concentration, Mean: 15.3 ng/mL
[3]; SC, 1.0 mg dose, 15 min
  Plasma Concentration, Mean: 16.0 ng/mL
[3]; SC, 1.0 mg dose, 20 min
  Plasma Concentration, Mean: 14.5 ng/mL
[3]; SC, 1.0 mg dose, 30 min
  Plasma Concentration, Mean: 14.0 ng/mL
[3]; SC, 1.0 mg dose, 45 min
  Plasma Concentration, Mean: 9.9 ng/mL
[3]; SC, 1.0 mg dose, 1 hr
  Plasma Concentration, Mean: 8.9 ng/mL
[3]; SC, 1.0 mg dose, 2 hr
  Plasma Concentration, Mean: 5.6 ng/mL
[3]; SC, 1.0 mg dose, 3 hr
  Plasma Concentration, Mean: 4.1 ng/mL
[3]; SC, 1.0 mg dose, 4 hr
  Plasma Concentration, Mean: 2.2 ng/mL
[3]; SC, 1.0 mg dose, 6 hr
  Plasma Concentration, Mean: 1.6 ng/mL
[3]; SC, 1.0 mg dose, 8 hr
  Plasma Concentration, Mean: 0.6 ng/mL
[3]; SC, 1.0 mg dose, 10 hr
  Plasma Concentration, Mean: 0 ng/mL
[3]; SC, 1.0 mg dose, 14 hr
  Plasma Concentration, Mean: 0 ng/mL
[3]; SC, 1.0 mg dose, 24 hr
  Plasma Concentration, Mean: 0 ng/mL
[3]; SC, 1.0 mg dose
  AUC(0-∞): 32.1 ng·h/mL
  Cmax: 16.9 ng/mL
  T1/2: 90 min
  Tmax: 13.3 min

## S=c1ccss1 [dithiolethione]
[1]
  LogPoct: 2.59

## O=C1NC(=O)C2(CCCC2)C(=O)N1 [5,5-(CH2)4-barbituric acid]
[1]
  LogPoct: 3.97

## C=CCC1(C)C(=O)NC(=O)NC1=O [5-Me-5-allylbartituric acid]
[1]
  LogPoct: 1.60
